Measurements published in paper PMC9218685, “Legume Plant Peptides as Sources of Novel Antimicrobial Molecules Against Human Pathogens” (Frontiers in Molecular Biosciences, 2022).
Peptide text beside a SMILES is read from it.

What was measured:
[1] = quoted in the Introduction; ref Kim et al., 2015; cited from earlier work
Text: In the Inverted Repeat Lacking Clade (IRLC) of legumes, in addition to defensins, a related family of peptides has evolved that encodes nodule specific, cysteine-rich NCR peptides that play essential roles in symbiosis ([Mergaert et al., 2003]; [Nallu et al., 2013]; [Montiel et al., 2017]). Legume plants in symbiosis with their rhizobium bacterium partner form nitrogen-fixing root nodules. The primary role of the NCR peptides is to convert bacteria into large polyploid, non-cultivable nitrogen-fixing bacteroids in the nodule cells ([Van de Velde et al., 2010]). This is a terminal differentiati ... || IRLC includes 56 genera and more than 4,000 species ([Duan et al., 2021]), and presumably all species have NCRs as it was confirmed in a few selected species. The genus Astragalus, with 2,300–2,500 members, has the highest number of species among angiosperms ([Duan et al., 2021]). In A. canadensis 108 NCRs have been identified ([Montiel et al., 2017]), while in the members of the Vicioid subclade 200–700 NCRs ([Ištvánek et al., 2014]; [Montiel et al., 2017]), thus, it is reasonable to assume that IRLC species in total express hundreds of thousand different NCRs, providing almost unlimited amou ...

[2] = tested on: E. coli, S. enteritidis, P. aeruginosa, L. monocytogenes, S. aureus, E. faecalis, K. pneumoniae and A. baumannii; assay: Antimicrobial activity assay, spectrum over the eight tested pathogenic bacteria; assay type: cell-based; details: 3 h treatment of ~10^7 log phase bacteria, peptides 25 to 0.8 µM; active = MBC ≤25 µM
How it was run: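 Log-phase bacteria (~10^7) treated 3 h with NCR peptides in potassium-phosphate buffer pH 7.4, two-fold dilutions from 25 µM to 0.8 µM. MBC is the lowest concentration completely eliminating viable bacteria. Strains: E. faecalis ATCC 29212, S. aureus HNCMO112011, L. monocytogenes ATCC 19111, P. aeruginosa ATCC 27853, E. coli ATCC 8739, S. enterica ATCC 13076, K. pneumoniae NCTC 13440, A. baumannii ATCC 17978.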

Human red blood cells = assay: Hemolysis assay; assay type: cell-based; details: 1 h at 37°C in TBS pH 7.2, peptides 0.4–100 μM, hemoglobin release OD560, relative to 0.5% Triton X-100 = 100%
Procedure: Human blood was purchased from the Regional Blood Centre in Szeged. The use of human blood for the hemolysis assay has been authorized by the Regional Hungarian Ethics Committee and approved by the Ethics Review Sector of DG RTD (European Commission) in connection with EK’s ERC AdG SymBiotics. The cells from 10 ml of EDTA-blood were centrifuged at 1,500 × g for 1 min and washed several times in TBS buffer (10 mM Tris, pH = 7.2, 150 mM NaCl) until the supernatant became colorless. The cells were then resuspended in 12 ml TBS buffer and 100 μl of this cell suspension was incubated for 1 h at 37°C in the presence of NCR peptides (0.4–100 μM). The cells were centrifuged at 1,500 g for 1 min and the supernatants were transferred into sterile 96-well plates and the hemoglobin release was measured at OD560 (Hidex Sense Microplate Reader with Plate Reader Software version 5064). […] The hemolytic activity was calculated as % of red blood cell disruption relative to the positive control sample lysed with detergent Triton X-100.
While AMPs can be very effective against microbes, they should not be toxic for human cells. […] Disruption of red blood cells was measured by spectrophotometry and compared to samples lysed with the detergent Triton X-100 (Supplementary Figure S2). […]

For “DRECDTDTECQKKFPGVNAHHLWCDNGNCVSYPK [NCR211, anionic M. truncatula NCR peptide]”, the net charge [1] is given as −2.1 and the “Antibacterial spectrum over the eight tested bacterial strains” value [2] is given as “inactive”.

For `CC[C@H](C)[C@H](NC(=O)CNC(=O)[C@@H](NC(=O)[C@H](CCCNC(=N)N)NC(=O)[C@@H]1CCCN1C(=O)[C@H](CS)NC(=O)[C@H](CC(=O)O)NC(=O)[C@H](CCCCN)NC(=O)[C@H](CC(=O)O)NC(=O)[C@H](CCCCN)NC(=O)[C@@H](NC(=O)[C@H](CS)NC(=O)[C@H](CO)NC(=O)[C@H](Cc1c[nH]cn1)NC(=O)[C@H](CC(N)=O)NC(=O)[C@H](CCCNC(=N)N)NC(=O)[C@H](CC(C)C)NC(=O)[C@H](CC(N)=O)NC(=O)[C@@H](NC(=O)[C@@H](N)CO)[C@@H](C)CC)[C@@H](C)CC)C(C)C)C(=O)N[C@@H](CC(C)C)C(=O)N[C@@H](CC(N)=O)C(=O)N[C@H](C(=O)N[C@@H](CCCNC(=N)N)C(=O)N[C@@H](CS)C(=O)N[C@@H](CCCNC(=N)N)C(=O)N[C@@H](CCCCN)C(=O)NCC(=O)N[C@@H](Cc1ccccc1)C(=O)N[C@@H](CS)C(=O)N[C@H](C(=O)N[C@@H](Cc1c[nH]cn1)C(=O)N[C@H](C(=O)N[C@@H](CO)C(=O)O)[C@@H](C)CC)C(C)C)[C@@H](C)CC` [MsNCR465] (H-SINLRNHSCIKDKDCPRVGILNIRCRKGFCVHIS-OH; N-terminus assumed), the “Hemolytic activity on human red blood cells” value (Human red blood cells) was “mild hemolysis at 50 and 100 μM”.
